The results in this text go back to the METLIN SMRT retention time set (Domingo-Almenara et al. 2019).

The nature of the series: gradient 5% acetonitrile 3 min, to 50% in 2 min, to 85% in 15 min, held 3 min, 100 µL/min. The note with it: column: Zorbax Extend-C18 2.1 x 50 mm; eluents: water / acetonitrile, 0.1% formic acid. An outline of the steps:
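Retention time was recorded from adduct peaks, which were picked computationally and each inspected manually. Pure standards ran in mixtures of ~100 molecules on HPLC coupled to a quadrupole time-of-flight mass spectrometer, in positive and negative ionization mode, through a Zorbax Extend-C18 column (2.1 × 50 mm, 1.8 μm) at 100 μL/min. Eluents were water and acetonitrile, each with 0.1% formic acid.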
As to `CCn1c(CN(C)C(=O)Nc2ccc3c(c2)OCCO3)nc2cc(C(=O)N(C)C)ccc21`, the RP-LC retention time is 611 s.
To `CC(C)NC(=O)c1ccc(C(C)C)cc1` belongs 918 s; to `CC(C)c1ccc(S(=O)(=O)N(C)CC2CCOCC2)cc1`, 1010 s.
To `COc1ncccc1CNC(=O)c1ccc(C)nc1` belongs 562 s; to `Cc1cc(C)n2c(Nc3ccccc3C)c(-c3ccc(O)cc3)nc2n1`, 907 s; to `CCn1ncc(NC(=O)COc2ccc(C)cc2)c(N2CCOCC2)c1=O`, 764 s.
For `COCCNC(=O)c1ccc(CNS(=O)(=O)c2cc(C)ccc2C)cc1`, the RP-LC retention time amounted to 703 s.
With `Cc1cccc(NC(=O)c2ccc(=O)n(C)n2)n1`, the RP-LC retention time stood at 595 s.
Consider `CCNc1cc(N2CCC(CCC(=O)NCc3cc(F)ccc3F)CC2)ncn1`, for which the RP-LC retention time was 666 s.
To `Cc1ccc(Nc2c(-c3ccccc3)nc3cnccn23)c(C)c1` belongs 982 s.
To `COc1cccc(CNC(=O)Cn2cnc3c(sc4nc(-c5ccccc5)ccc43)c2=O)c1` belongs 975 s.
The figure for `CCn1ncc(C(=O)NCCn2c(C)cnc2C2CCC2)c1C` is 567 s.
Take `Cc1ccc(-c2cc(C(=O)NC3CC3)n(C)c2)cc1`: the RP-LC retention time was 915 s.
The figure for `CCOc1ccc2c(c1)SC(CC(=O)Nc1ccccc1[N+](=O)[O-])C(=O)N2` (stereo not given) is 822 s; for `O=C(NC1CC1)c1ccc(OCC2CCN(C(=O)c3ccc(Br)o3)CC2)cc1` it is 830 s.
The figure for `O=C(NCc1c(-c2ccc(Cl)cc2)nc2n1CCS2)c1ccco1` is 668 s; for `COc1ccc(-c2nc(C)cc(C)c2CNC(=O)c2ccc3c(c2)OCO3)cc1` it is 632 s.
To `CCn1cc(C(=O)N2C[C@@H](COCC3CC3)[C@H](c3nc(C)no3)C2)cn1` belongs 714 s; to `Cc1ccc(F)cc1NC(=O)Cn1cnc2nc(N3CCC(C(=O)NC4CC4)CC3)sc2c1=O`, 674 s.
As for `CNC(=O)c1cnn2c3c(cnc12)CCCCCC3`, the RP-LC retention time was found to be 831 s.
The figure for `CCCCN1C(=O)C(C)(C(=O)Nc2ccc(F)c(F)c2)Oc2cccnc21` (stereo not given) is 1070 s.
The figure for `Cc1ccc(C(=O)CC2(O)C(=O)Nc3ccccc32)c(C)c1` (stereo not given) is 759 s; for `CCOC(=O)C1CCN(C(=O)Cn2c3ccccc3c3cnn(C)c(=O)c32)CC1` it is 775 s; for `CCC(=O)NCc1nc2c(n1C)CN(C(=O)c1ccccc1Br)CC2` it is 505 s.
With `CCc1ccc(NC(=O)Cc2nc(C)c(C(=O)NCc3ccc(F)cc3)s2)cc1`, the RP-LC retention time came to 946 s.
To `COc1ccc(-c2cn3ccn(-c4ccc5c(c4)CCC5)c(=O)c3n2)cc1OC` belongs 846 s; to `COc1cc(-c2noc(Cc3nnc(-c4ccc(C)c(F)c4)o3)n2)cc(OC)c1OC`, 996 s.
To `CC(C)c1ccc(NC(=O)c2cn3c(n2)CCCC3)cc1` belongs 684 s; to `O=C(Nc1c(-c2ccc(F)cc2)nc2ccccn12)c1cccc(Cl)c1`, 750 s; to `CCc1noc2nc(C)n(CC(=O)NCc3ccc(C)cc3)c(=O)c12`, 829 s.
To `Cc1cc(C(F)(F)F)nn1CC(=O)N1CCc2nn(C)c(=O)n2CC1` belongs 659 s; to `CCc1cccc(NC(=O)Cn2ccc3sccc3c2=O)c1`, 800 s; to `CCn1cc(-c2nc(-c3ccc(F)cc3)no2)c(=O)c2cc(F)c(N3CCOCC3)cc21`, 951 s.
`CCCOc1nc2ccccc2nc1N1CCCC(C(=O)N2CCN(c3ccc(OC)cc3)CC2)C1` (stereo not given) displayed an RP-LC retention time of 1280 s.
To `Cc1ccc(CNC(=O)C2(C)CN(S(C)(=O)=O)CC(=O)N2c2ccc(C)c(C)c2)cc1` (stereo not given) belongs 807 s; to `CCOc1ccc(-c2noc(Cc3nc(-c4cccc(OC)c4)cs3)n2)cc1`, 1230 s.
In turn, `O=C(NCc1cccnc1)c1nc(CCS(=O)(=O)c2ccccc2)no1` showed an RP-LC retention time of 593 s.
`CCc1ccc(-c2nc(-c3ccc4c(c3)nnn4CCN3CCOCC3)no2)cc1` registered an RP-LC retention time of 663 s.
With `CCN(CC)CCNC(=O)CN1N=C(c2ccc(Cl)cc2)CCC1=O`, the RP-LC retention time worked out at 625 s.
The figure for `O=C1CCCc2cc(S(=O)(=O)N3CCC(C(=O)N4CCc5ccccc54)CC3)ccc2N1` is 802 s; for `Cn1nc(C(=O)OCc2cc(-c3ccc(Cl)cc3)on2)ccc1=O` it is 812 s.
In the case of `O=C(NC1CCN(c2cc(-c3ccc(F)cc3)[nH]n2)C1)c1ccccc1Cl` (stereo not given), the RP-LC retention time is 721 s.
To `O=C(NCCCOc1cccc2cccnc12)c1cc(-c2ccccc2)on1` belongs 617 s; to `O=C(COc1ccc(-c2nnc3n2CCCC3)cc1)NCc1ccc2c(c1)OCO2`, 662 s; to `O=C(Nc1ccc(Cl)cc1)C1CCCN(c2nc3ccsc3c(=O)n2Cc2ccc(F)cc2)C1` (stereo not given), 1110 s.
`CCN1CCn2cc(S(=O)(=O)N3CCCc4ccccc43)cc2C1=O` came in with an RP-LC retention time of 800 s.
`O=C(c1c(F)cccc1F)N1CCN=C1SCc1cccnc1`: the RP-LC retention time is 582 s.
In turn, `Cc1ccc(NC(=O)C2CCN(S(=O)(=O)c3ccc4c(c3)NC(=O)C(C)O4)CC2)cc1` (stereo not given) had an RP-LC retention time of 817 s.
To `COc1ccc(NC(=O)CCC2CCN(c3cc(NC4CC4)ncn3)CC2)cc1OC` belongs 646 s; to `COc1cccc(-n2c(N3CCCC(C(=O)NCC4CC4)C3)nc3ccsc3c2=O)c1` (stereo not given), 771 s.
The compound `O=C1CC(c2noc(-c3ccccc3)n2)CN1c1ccc(Cl)cc1` (stereo not given) had an RP-LC retention time of 1040 s.
The figure for `CCCC(NC(=O)Cc1ccccc1Cl)C(=O)Nc1nc2ccccc2[nH]1` (stereo not given) is 713 s; for `CSc1nc2nc3c(cn2n1)C(=O)CC(C)C3` (stereo not given) it is 705 s.
The compound `CCNC(=O)C1CCCN(c2nc3ncn(CC(=O)Nc4ccc(C)c(Cl)c4)c(=O)c3s2)C1` (stereo not given) had an RP-LC retention time of 738 s.
The figure for `Cc1nc(-c2csc(S(=O)(=O)N3CCCC(C(=O)Nc4cccc(Cl)c4C)C3)c2)no1` (stereo not given) is 1020 s.
For `CCC(=O)N1CCc2cc(-c3ccc(C(=O)NCCCN4CCOCC4)cc3)ccc21`, the RP-LC retention time was 628 s.
The figure for `COc1ccc2c(CCNc3nc(-c4ccc(C5CCCCC5)cc4)cs3)c[nH]c2c1` is 1250 s; for `CCc1ccc(NC(=O)CN2CCc3[nH]c4c(OC)ccc(Cl)c4c(=O)c3C2)cc1` it is 661 s.
`COc1ccc2c(c1)C1(CCN(S(=O)(=O)c3ccc4c(c3)CC(=O)N4C)C1)C(=O)N2C` (stereo not given) had an RP-LC retention time of 744 s.
For `Cc1cc(C)cc(-n2ccc(=O)c(-c3nc(-c4ccc5c(c4)OCO5)no3)n2)c1`, the RP-LC retention time was 996 s.
`CCOC(=O)c1c(C)oc(C)c(C(=O)OCC)c1=O`: the RP-LC retention time was found to be 780 s.
As for `Cc1ccc2[nH]cc(CCNC(=O)CC3CCN(C(=O)C4CCCCC4)CC3)c2c1`, the RP-LC retention time was 850 s.
The figure for `Cc1ccc(N2CCC(NC(=O)c3cccc(C#N)c3)C2=O)cc1` (stereo not given) is 813 s; for `Cc1ccc(F)c(-n2nnc(C(=O)O)c2-c2cccnc2)c1` it is 642 s.
The figure for `CC12CCC(C(=O)Nc3ccc(Cl)cn3)(OC1=O)C2(C)C` (stereo not given) is 890 s; for `O=C(Cn1c(C(=O)c2cccc(F)c2)nc2ccccc21)NCC1CCCO1` (stereo not given) it is 805 s.
The figure for `COc1ccc(Nc2cc(C(=O)N3CCC(C)CC3)nc3cc(OC)c(OC)cc23)cc1Cl` is 778 s.
With `CCn1cc(C2=CCN(S(=O)(=O)c3ccc(C(C)(C)C)cc3)CC2)c2cccnc21`, the RP-LC retention time was determined as 1270 s.
The compound `COc1ccc(C)cc1NS(=O)(=O)c1ccc2c(c1)CCCC(=O)N2` gave an RP-LC retention time of 709 s.
Turning to `Cc1cc(C)cc(C(=O)NC(C)C(=O)Nc2nc3ccccc3[nH]2)c1` (stereo not given), the RP-LC retention time amounted to 688 s.
To `O=c1ccc(-c2ccc3c(c2)OCO3)nn1CCc1nc(-c2ccccc2)no1` belongs 908 s; to `CSc1ccc(NC(=O)C2c3ccccc3Oc3ccccc32)nn1`, 907 s.
Regarding `CCOC(=O)COc1cc(-c2ccccc2)nc2ccc(NC(=O)COc3ccc(F)cc3)cc12`, the RP-LC retention time amounted to 868 s.
The figure for `COC(=O)c1cnc2nc(C)ccc2c1Nc1ccc(Cl)c(F)c1` is 713 s; for `O=C1NC2CCCCC2NC1CC(=O)N1CCN(C(c2ccccc2)c2ccccc2)CC1` (stereo not given) it is 586 s.
`COc1ccccc1-c1csc(NC(=O)c2sc(C)nc2C)n1` registered an RP-LC retention time of 900 s.
The figure for `CCCCN1C(=O)C(C)(C(=O)NCc2cc(F)cc(F)c2)Oc2cccnc21` (stereo not given) is 1020 s; for `Cc1noc(C2CN(C(=O)Nc3ccc(Cl)cc3C)CC23CCOCC3)n1` (stereo not given) it is 792 s.
To `N#CCCSc1ccccc1NC(=O)c1ccc(S(=O)(=O)N2CCCCCC2)cc1` belongs 946 s.
The compound `COc1ccc(NC(=O)C2CCCN2S(=O)(=O)c2cc3c(cc2C)NC(=O)CO3)cc1Cl` (stereo not given) showed an RP-LC retention time of 775 s.
